Source: patent publication US10407409B2, “6-(5-hydroxy-1H-pyrazol-1-yl)nicotinamide inhibitors of PHD” (Takeda Pharmaceutical Company Limited, priority 2013, dated 2019)

How the values were obtained:
[1] = molecular target: PHD2 enzyme (residues 181-417) (Homo sapiens (Human), UniProt Q9GZT9); assay: Inhibition of PHD enzyme (LC/MS peptide hydroxylation assay); assay type: biochemical; conditions: PHD2 (residues 181-417) 5 nM, 60 min pre-incubation, -log(IC50), IC50 molar; for IC50: read-out: PHD Inhibition (pIC50) (converted)
Sequence of PHD2 enzyme (residues 181-417) (Q9GZT9 181-417): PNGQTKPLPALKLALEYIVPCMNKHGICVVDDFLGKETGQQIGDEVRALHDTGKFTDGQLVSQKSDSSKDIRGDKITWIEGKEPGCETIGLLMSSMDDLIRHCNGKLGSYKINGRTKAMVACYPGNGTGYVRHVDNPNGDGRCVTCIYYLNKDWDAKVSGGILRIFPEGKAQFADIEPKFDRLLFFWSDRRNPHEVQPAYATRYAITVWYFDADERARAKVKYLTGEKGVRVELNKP
In short: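 Hydroxylated peptide quantified by LC/MS after 60 min turnover of 1 uM biotinylated peptide with 2 uM 2-oxoglutarate and 1 mM ascorbate, stopped by excess tight-binding inhibitor. Beforehand, 5 nM enzyme and compound were preincubated 60 min at RT, pH 7.3 HEPES/KCl/TCEP/FeCl2/BSA buffer. Values as pIC50 (−log molar IC50).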

[2] = system: HIF1a protein in H9c2 rat cardiomyocytes; assay: Cell-based HIF-alpha stabilization assay (inhibition of PHD in cells); conditions: Rattus norvegicus, H9c2, 24 h, 24 hrs compound incubation, HIF1a protein by ELISA, read-out: Inhibition of PHD in cells (pEC50) (converted)
In short: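 HIF1a stabilization was measured by ELISA on lysates of H9c2 rat cardiomyocytes after 24 h exposure to 11 serial compound concentrations, expressed relative to the desferrioxamine maximum. Curve fits gave EC50. EC50pos denotes the concentration producing half the desferrioxamine maximal response.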

Row | PHD Inhibition (pIC50) [1] | IC50 [1] | SMILES | EC50 [2]
1 | 8.1 | – | COC[C@H]1CCC[C@H]1NC(=O)c1ccc(-n2ncc(-c3ccc(C#N)cc3C)c2O)nc1 [Example 103, 6-(4-(4-cyano-2-methylphenyl)-5-hydroxy-1H-pyrazol-1-yl)-N-((1R,2S)-2-(methoxymethyl)cyclopentyl)nicotinamide] | 178 nM
2 | 8 | – | COC[C@H]1CCC[C@H]1NC(=O)c1ccc(-n2ncc(-c3ccnc(OC)c3)c2O)nc1 [Example 45, 6-(5-hydroxy-4-(2-methoxypyridin-4-yl)-1H-pyrazol-1-yl)-N-((1R,2S)-2-(methoxymethyl)cyclopentyl)nicotinamide] | 562 nM
3 | 7.03 | – | Cc1cc(-n2ncc(-c3ccc(C#N)cc3)c2O)ncc1C(=O)NC1CC1 [Example 275, 6-(4-(4-cyanophenyl)-5-hydroxy-1H-pyrazol-1-yl)-N-cyclopropyl-4-methylnicotinamide] | 3800 nM
4 | 5.69 | – | O=C(NCc1ccccc1)c1ccc(-n2ncc(-c3ccccn3)c2O)cc1 [Example 280, N-benzyl-4-(5-hydroxy-4-(pyridin-2-yl)-1H-pyrazol-1-yl)benzamide] | 50100 nM
5 | 7.18 | – | N#Cc1ccc(-c2cnn(-c3ccc(C(=O)NC4CC4)cn3)c2O)cc1 [Example 161, 6-(4-(4-cyanophenyl)-5-hydroxy-1H-pyrazol-1-yl)-N-cyclopropylnicotinamide] | 447 nM
6 | 7.27 | – | Cc1cc(C#N)ccc1-c1cnn(-c2ccc(C(=O)NCCCCO)cn2)c1O [Example 130, 6-(4-(4-cyano-2-methylphenyl)-5-hydroxy-1H-pyrazol-1-yl)-N-(4-hydroxybutyl)nicotinamide] | 417 nM
7 | 7.33 | – | Cc1cc(C#N)ccc1-c1cnn(-c2ccc(C(=O)NC3CCOCC3)cn2)c1O [Example 59, 6-(4-(4-cyano-2-methylphenyl)-5-hydroxy-1H-pyrazol-1-yl)-N-(tetrahydro-2H-pyran-4-yl)nicotinamide] | 70.8 nM
8 | 7.24 | – | CCOCCNC(=O)c1ccc(-n2ncc(-c3ccc(C#N)cc3C)c2O)nc1 [Example 126, 6-(4-(4-cyano-2-methylphenyl)-5-hydroxy-1H-pyrazol-1-yl)-N-(2-ethoxyethyl)nicotinamide] | 380 nM
9 | 8.15 | – | Cc1cc(C#N)ccc1-c1cnn(-c2ccc(C(=O)N3CCN(C(C)(C)C)CC3)cn2)c1O [Example 291, 4-(1-(5-(4-(tert-butyl)piperazine-1-carbonyl)pyridin-2-yl)-5-hydroxy-1H-pyrazol-4-yl)-3-methylbenzonitrile] | 977 nM
10 | 7.38 | – | CO[C@H]1CC[C@@H](NC(=O)c2ccc(-n3ncc(-c4ccc(C#N)cc4)c3O)nc2)CC1 [Example 227, 6-(4-(4-cyanophenyl)-5-hydroxy-1H-pyrazol-1-yl)-N-((1s,4s)-4-methoxycyclohexyl)nicotinamide] | 550 nM
11 | – | 97.7 nM | COc1cc(-c2cnn(-c3ccc(C(=O)NCCCO)cn3)c2O)ccn1 [Example 26, 6-(5-hydroxy-4-(2-methoxypyridin-4-yl)-1H-pyrazol-1-yl)-N-(3-hydroxypropyl)nicotinamide] | 3630 nM
12 | 8.1 | – | C[C@H]1CC[C@H](NC(=O)c2ccc(-n3ncc(-c4ccc(C#N)cc4)c3O)nc2)CC1 [Example 144, 6-(4-(4-cyanophenyl)-5-hydroxy-1H-pyrazol-1-yl)-N-((1r,4r)-4-methylcyclohexyl)nicotinamide] | 1700 nM
13 | 8.48 | – | CCN1CCN(C(=O)c2ccc(-n3ncc(-c4cc(F)c(C#N)cc4C)c3O)nc2)C[C@H]1C [Example 395, (R)-4-(1-(5-(4-ethyl-3-methylpiperazine-1-carbonyl)pyridin-2-yl)-5-hydroxy-1H-pyrazol-4-yl)-2-fluoro-5-methylbenzonitrile] | 2630 nM
14 | 8.3 | – | COC(C)CCNC(=O)c1ccc(-n2ncc(-c3ccc(C#N)cc3)c2O)nc1 (centres unmarked) [Example 145, 6-(4-(4-cyanophenyl)-5-hydroxy-1H-pyrazol-1-yl)-N-(3-methoxybutyl)nicotinamide] | 501 nM
15 | 7.14 | – | CCCNC(=O)c1ccc(-n2ncc(-c3ccc(C#N)cc3C)c2O)nc1 [Example 60, 6-(4-(4-cyano-2-methylphenyl)-5-hydroxy-1H-pyrazol-1-yl)-N-propylnicotinamide] | 200 nM
16 | 6.9 | – | COc1cc(-c2cnn(-c3ccc(C(=O)N(C)C4CC4)cn3)c2O)ccn1 [Example 243, N-cyclopropyl-6-(5-hydroxy-4-(2-methoxypyridin-4-yl)-1H-pyrazol-1-yl)-N-methylnicotinamide] | 4170 nM

Row | PHD Inhibition (pIC50) [1] | IC50 [1] | SMILES | EC50 [2]
17 | 7.08 | – | COc1cc(-c2cnn(-c3ccc(C(=O)NC4CC4)cn3)c2O)ccn1 [Example 204, N-cyclopropyl-6-(5-hydroxy-4-(2-methoxypyridin-4-yl)-1H-pyrazol-1-yl)nicotinamide] | 468 nM
18 | 7.47 | – | COCC(NC(=O)c1ccc(-n2ncc(-c3ccc(C#N)cc3)c2O)nc1)C(C)C (centres unmarked) [Example 156, 6-(4-(4-cyanophenyl)-5-hydroxy-1H-pyrazol-1-yl)-N-(1-methoxy-3-methylbutan-2-yl)nicotinamide] | 891 nM
19 | 8.03 | – | Cc1cc(C#N)ccc1-c1cnn(-c2ccc(C(=O)N(C)C3CCN(C)CC3)cn2)c1O [Example 289, 6-(4-(4-cyano-2-methylphenyl)-5-hydroxy-1H-pyrazol-1-yl)-N-methyl-N-(1-methylpiperidin-4-yl)nicotinamide] | 1230 nM
20 | 8.1 | – | COCCCNC(=O)c1ccc(-n2ncc(-c3ccc(CC#N)cc3)c2O)nc1 [Example 217, 6-(4-(4-(cyanomethyl)phenyl)-5-hydroxy-1H-pyrazol-1-yl)-N-(3-methoxypropyl)nicotinamide] | 1230 nM
21 | 7.42 | – | N#Cc1ccc(-c2cnn(-c3ccc(C(=O)NCCCc4nccs4)cn3)c2O)cc1 [Example 116, 6-(4-(4-cyanophenyl)-5-hydroxy-1H-pyrazol-1-yl)-N-(3-(thiazol-2-yl)propyl)nicotinamide] | 741 nM
22 | 6.98 | – | COCCC1(NC(=O)c2ccc(-n3ncc(-c4ccnc(OC)c4)c3O)nc2)CC1 [Example 209, 6-(5-hydroxy-4-(2-methoxypyridin-4-yl)-1H-pyrazol-1-yl)-N-(1-(2-methoxyethyl)cyclopropyl)nicotinamide] | 398 nM
23 | 8.53 | – | Cc1c(-c2cnn(-c3ccc(C(=O)N4CCC[C@@H](N(C)CC(F)F)C4)cn3)c2O)ccc(C#N)c1F [Example 336, (R)-4-(1-(5-(3-((2,2-difluoroethyl)(methyl)amino)piperidine-1-carbonyl)pyridin-2-yl)-5-hydroxy-1H-pyrazol-4-yl)-2-fluoro-3-methylbenzonitrile] | 977 nM
24 | 8.20 | – | CCN1CCN(C(=O)c2ccc(-n3ncc(-c4cc(F)c(C#N)cc4C)c3O)nc2)[C@@H](C)C1 [Example 433, (S)-4-(1-(5-(4-ethyl-2-methylpiperazine-1-carbonyl)pyridin-2-yl)-5-hydroxy-1H-pyrazol-4-yl)-2-fluoro-5-methylbenzonitrile] | 363 nM
25 | 7.2 | – | COC(C)(C)CNC(=O)c1ccc(-n2ncc(-c3ccc(C#N)cc3)c2O)nc1 [Example 55, 6-(4-(4-cyanophenyl)-5-hydroxy-1H-pyrazol-1-yl)-N-(2-methoxy-2-methylpropyl)nicotinamide] | 1860 nM
26 | 7.07 | – | N#Cc1ccc(-c2cnn(-c3ccc(C(=O)NCCF)cn3)c2O)cc1 [Example 78, 6-(4-(4-cyanophenyl)-5-hydroxy-1H-pyrazol-1-yl)-N-(2-fluoroethyl)nicotinamide] | 1550 nM
27 | 8.35 | – | Cc1cc(C#N)ccc1-c1cnn(-c2ccc(C(=O)N3CC(N(C)C)C3)cn2)c1O [Example 345, 4-(1-(5-(3-(dimethylamino)azetidine-1-carbonyl)pyridin-2-yl)-5-hydroxy-1H-pyrazol-4-yl)-3-methylbenzonitrile] | 363 nM
28 | – | 174 nM | COCCCNC(=O)c1ccc(-n2ncc(-c3cc(C)nc(OC)c3)c2O)nc1 [Example 214, 6-(5-hydroxy-4-(2-methoxy-6-methylpyridin-4-yl)-1H-pyrazol-1-yl)-N-(3-methoxypropyl)nicotinamide] | 2820 nM
29 | 8.287 | – | CCN1CCN(C(=O)c2ccc(-n3ncc(-c4ccc(C#N)cc4C)c3O)nc2)C[C@@H]1C [Example 370, (S)-4-(1-(5-(4-ethyl-3-methylpiperazine-1-carbonyl)pyridin-2-yl)-5-hydroxy-1H-pyrazol-4-yl)-3-methylbenzonitrile] | 562 nM
30 | 6.71 | – | N#Cc1cnn(-c2cnn(-c3ccc(C(=O)NCC4CCOCC4)cn3)c2O)c1 [Example 158, 6-(4-cyano-5′-hydroxy-1′H-[1,4′-bipyrazol]-1′-yl)-N-((tetrahydro-2H-pyran-4-yl)methyl)nicotinamide] | 9550 nM
31 | 7.34 | – | CN1CCC(NC(=O)c2ccc(-n3ncc(-c4ccc(C#N)cc4)c3O)nc2)CC1 [Example 270, 6-(4-(4-cyanophenyl)-5-hydroxy-1H-pyrazol-1-yl)-N-(1-methylpiperidin-4-yl)nicotinamide] | 1000 nM
